Assay: xn = mol fraction of the nth substance listed
Settings: Gas, Oscillating disk viscometry

FC(F)C(F)(F)F [pentafluoroethane] + CCC
Settings | viscosity [mPa·s]
373.15 K, 3429.9 kPa, x1 = 0.5011 | 0.01593
373.15 K, 3613.1 kPa, x1 = 0.5011 | 0.01624
373.15 K, 3684.6 kPa, x1 = 0.7503 | 0.01798
373.15 K, 3737.3 kPa, x1 = 0.5011 | 0.01642
373.15 K, 3960.9 kPa, x1 = 0.5011 | 0.01685
373.15 K, 3969.4 kPa, x1 = 0.7503 | 0.01855
373.15 K, 4171.6 kPa, x1 = 0.5011 | 0.0173
373.15 K, 4227.4 kPa, x1 = 0.7503 | 0.01913
373.15 K, 4377 kPa, x1 = 0.5011 | 0.01777
373.15 K, 4411 kPa, x1 = 0.7503 | 0.01964
373.15 K, 4576.1 kPa, x1 = 0.5011 | 0.01833
373.15 K, 4607.7 kPa, x1 = 0.7503 | 0.02019
373.15 K, 4760.3 kPa, x1 = 0.5011 | 0.01889
373.15 K, 4816.2 kPa, x1 = 0.7503 | 0.02092
373.15 K, 4878.3 kPa, x1 = 0.5011 | 0.01931
373.15 K, 5001.8 kPa, x1 = 0.7503 | 0.0217
373.15 K, 5157.2 kPa, x1 = 0.7503 | 0.02229
373.15 K, 5305.9 kPa, x1 = 0.7503 | 0.02305
398.15 K, 101.4 kPa, x1 = 0.5011 | 0.01447
398.15 K, 101.8 kPa, x1 = 0.7503 | 0.01589
398.15 K, 200.6 kPa, x1 = 0.5011 | 0.01454
398.15 K, 262.5 kPa, x1 = 0.7503 | 0.01594
398.15 K, 348.4 kPa, x1 = 0.5011 | 0.01457
398.15 K, 488.6 kPa, x1 = 0.7503 | 0.01602
398.15 K, 541 kPa, x1 = 0.5011 | 0.01463
398.15 K, 733.4 kPa, x1 = 0.7503 | 0.01606
398.15 K, 783.2 kPa, x1 = 0.5011 | 0.01467
398.15 K, 977 kPa, x1 = 0.7503 | 0.01615
398.15 K, 1028.7 kPa, x1 = 0.5011 | 0.01479
398.15 K, 1218.3 kPa, x1 = 0.7503 | 0.01622
398.15 K, 1272.7 kPa, x1 = 0.5011 | 0.01488
398.15 K, 1476.6 kPa, x1 = 0.7503 | 0.01635
398.15 K, 1520 kPa, x1 = 0.5011 | 0.01497
398.15 K, 1712.5 kPa, x1 = 0.7503 | 0.01647
398.15 K, 1748.1 kPa, x1 = 0.5011 | 0.01511
398.15 K, 1944.3 kPa, x1 = 0.7503 | 0.01666
398.15 K, 2037 kPa, x1 = 0.5011 | 0.01521
398.15 K, 2176.8 kPa, x1 = 0.7503 | 0.01672
398.15 K, 2274.1 kPa, x1 = 0.5011 | 0.0154
398.15 K, 2388.9 kPa, x1 = 0.7503 | 0.01694
398.15 K, 2490.3 kPa, x1 = 0.5011 | 0.01548
398.15 K, 2622.4 kPa, x1 = 0.7503 | 0.01715
398.15 K, 2777.4 kPa, x1 = 0.5011 | 0.01568
398.15 K, 2888.9 kPa, x1 = 0.7503 | 0.01734
398.15 K, 3059.7 kPa, x1 = 0.5011 | 0.01592
398.15 K, 3178.3 kPa, x1 = 0.7503 | 0.01765
398.15 K, 3336.8 kPa, x1 = 0.5011 | 0.01626
398.15 K, 3405.7 kPa, x1 = 0.7503 | 0.01794
398.15 K, 3609.9 kPa, x1 = 0.5011 | 0.0165
398.15 K, 3624.9 kPa, x1 = 0.7503 | 0.01817
398.15 K, 3822.7 kPa, x1 = 0.7503 | 0.01844
398.15 K, 3842.8 kPa, x1 = 0.5011 | 0.01681
398.15 K, 3992.9 kPa, x1 = 0.7503 | 0.01868
398.15 K, 4062.4 kPa, x1 = 0.5011 | 0.01705
398.15 K, 4225.4 kPa, x1 = 0.7503 | 0.01902
398.15 K, 4329.6 kPa, x1 = 0.5011 | 0.01744
398.15 K, 4523.9 kPa, x1 = 0.7503 | 0.01947
398.15 K, 4652.3 kPa, x1 = 0.5011 | 0.01792
398.15 K, 4690.7 kPa, x1 = 0.7503 | 0.01983
398.15 K, 4804.6 kPa, x1 = 0.7503 | 0.02002
398.15 K, 5014.1 kPa, x1 = 0.5011 | 0.01853
398.15 K, 5040.9 kPa, x1 = 0.7503 | 0.02051
398.15 K, 5179.6 kPa, x1 = 0.5011 | 0.01885
398.15 K, 5224.5 kPa, x1 = 0.7503 | 0.02087
398.15 K, 5374.2 kPa, x1 = 0.5011 | 0.01934
398.15 K, 5462.4 kPa, x1 = 0.7503 | 0.0215
398.15 K, 5801.5 kPa, x1 = 0.7503 | 0.0224
423.15 K, 101.3 kPa, x1 = 0.5011 | 0.01525
423.15 K, 102.4 kPa, x1 = 0.7503 | 0.01671
423.15 K, 194.6 kPa, x1 = 0.7503 | 0.01672
423.15 K, 200.5 kPa, x1 = 0.5011 | 0.01531
423.15 K, 336.4 kPa, x1 = 0.7503 | 0.01676
423.15 K, 390.6 kPa, x1 = 0.5011 | 0.01537
423.15 K, 570.1 kPa, x1 = 0.7503 | 0.01682
423.15 K, 586.2 kPa, x1 = 0.5011 | 0.01537
423.15 K, 781.9 kPa, x1 = 0.5011 | 0.01543
423.15 K, 812.9 kPa, x1 = 0.7503 | 0.01692
423.15 K, 960.2 kPa, x1 = 0.5011 | 0.01542
423.15 K, 1055.8 kPa, x1 = 0.7503 | 0.01696
423.15 K, 1175.7 kPa, x1 = 0.5011 | 0.01552
423.15 K, 1254.9 kPa, x1 = 0.7503 | 0.01706
423.15 K, 1421.7 kPa, x1 = 0.5011 | 0.01565
423.15 K, 1448.9 kPa, x1 = 0.7503 | 0.01715
423.15 K, 1640 kPa, x1 = 0.7503 | 0.01724
423.15 K, 1658.8 kPa, x1 = 0.5011 | 0.01573
423.15 K, 1898.5 kPa, x1 = 0.5011 | 0.01584
423.15 K, 1906.4 kPa, x1 = 0.7503 | 0.0174
423.15 K, 2128.2 kPa, x1 = 0.7503 | 0.01752
423.15 K, 2142.2 kPa, x1 = 0.5011 | 0.01598
423.15 K, 2375.9 kPa, x1 = 0.7503 | 0.01766
423.15 K, 2381.7 kPa, x1 = 0.5011 | 0.01613
423.15 K, 2575.8 kPa, x1 = 0.5011 | 0.01623
423.15 K, 2591.5 kPa, x1 = 0.7503 | 0.01781
423.15 K, 2903.1 kPa, x1 = 0.5011 | 0.01643
423.15 K, 2919.3 kPa, x1 = 0.7503 | 0.01808
423.15 K, 3148.8 kPa, x1 = 0.5011 | 0.01663
423.15 K, 3160.1 kPa, x1 = 0.7503 | 0.01824
423.15 K, 3289.3 kPa, x1 = 0.7503 | 0.01836
423.15 K, 3412.8 kPa, x1 = 0.5011 | 0.01685
423.15 K, 3552.1 kPa, x1 = 0.7503 | 0.01859
423.15 K, 3651.4 kPa, x1 = 0.5011 | 0.01705
423.15 K, 3813.6 kPa, x1 = 0.7503 | 0.01886
423.15 K, 3903.9 kPa, x1 = 0.5011 | 0.01729
423.15 K, 4061.5 kPa, x1 = 0.7503 | 0.01916
423.15 K, 4138.6 kPa, x1 = 0.5011 | 0.01756
423.15 K, 4298.5 kPa, x1 = 0.7503 | 0.01944
423.15 K, 4492.6 kPa, x1 = 0.7503 | 0.01962
423.15 K, 4533.7 kPa, x1 = 0.5011 | 0.01792
423.15 K, 4689.8 kPa, x1 = 0.7503 | 0.01988
423.15 K, 4822.7 kPa, x1 = 0.5011 | 0.01823
423.15 K, 4902.5 kPa, x1 = 0.7503 | 0.02023
423.15 K, 5070 kPa, x1 = 0.7503 | 0.02042
423.15 K, 5073.7 kPa, x1 = 0.5011 | 0.01858
423.15 K, 5285.8 kPa, x1 = 0.7503 | 0.02077
423.15 K, 5357.3 kPa, x1 = 0.5011 | 0.01897
423.15 K, 5493.3 kPa, x1 = 0.7503 | 0.02108
423.15 K, 5672.2 kPa, x1 = 0.7503 | 0.02139
423.15 K, 5701.1 kPa, x1 = 0.5011 | 0.01947
423.15 K, 5887.3 kPa, x1 = 0.7503 | 0.02175
423.15 K, 6049.1 kPa, x1 = 0.5011 | 0.02
423.15 K, 6270.6 kPa, x1 = 0.5011 | 0.02038
423.15 K, 6494.5 kPa, x1 = 0.5011 | 0.0208
423.15 K, 6710.2 kPa, x1 = 0.5011 | 0.02129
